According to PMC3056768, “Conjugation to the Cell-Penetrating Peptide TAT Potentiates the Photodynamic Effect of Carboxytetramethylrhodamine” (PLoS ONE, 2011):
Entries after “also recorded” stand apart in the source; their conditions may differ.

How the values were obtained:
HeLa cells [1] = test: Photocytotoxicity of endocytosed peptide after light irradiation (SYTOX Blue staining, membrane blebbing); format: cell-based
Method: HeLa (human cervical adenocarcinoma), COS-7 (SV40 transformed African green monkey kidney fibroblast-like cell line) were obtained from ATCC. COLO 316 (human ovarian carcinoma) were obtained from Robert Burghardt (Department of Veterinary Integrative Biosciences, Texas A&M University). Cells were cultured in DMEM supplemented with 10% fetal bovine serum (FBS) and maintained at 37°C in a humidified environment with 5% CO2. Cells were plated in 8-well dishes so that the cells were 70% confluent after 24 h, washed 3 times with L-15 media, incubated with 3 to 10 µM peptides at 37°C for 1 h, washed 3 times with L-15, and imaged. Alternatively, cells were incubated in L-15 at 4°C to inhibit the endocytic uptake of peptides. In this case, cells were imaged with the peptide still present in solution and the low temperature was maintained for the entire duration of imaging. For photosensitization, cells were exposed to light (λex = 560±20 nm) for the indicated time points. Plasma membrane disruption was detected by addition of the cell-impermeable DNA stain SYTOX Blue (5 µM) during or after photosensitization.
Ten to twenty images were acquired for each experiment.
Irradiances at the specimen were 100 mW/cm^2 when no neutral density filter and no objective were present in the light path (and, for instance 5 mW/cm^2 when ND4 was inserted). Irradiances were measured using a monochromic photometer (model 840-c, Newport, Irvine, CA). Irradiation area has a diameter of 1.3 cm without objective but the light beam is focused into an area of 3×10^−3 cm^2 by the 100× objective. Irradiances can therefore be approximated to be at […] with ND4 or ND1, respectively. Irradiances provided in the figure legends are based on these calculations. To confirm that the irradiances measured on the microscope were accurate, experiments were also reproduced, when possible, using light illumination with a collimated light source from Oriel (Stratford, CT) equipped with a 500 W Hg lamp. Selective irradiation at 560 nm was performed using an analytical line filter (Oriel, 9.4 nm bandwidth). In this case, irradiances of the light beam (diameter of 2.5 cm) could be measured more precisely using the monochromic photometer.

HeLa cells [2] = test: Photo-induced activity as a function of time in the endocytic pathway (endocytic degradation); format: cell-based, human; conditions: 3 µM 1 h, washed, read-out of endocytic degradation
Method: One would expect that TMR-TAT would accumulate within late endosomes and lysosomes over time and that the TAT moiety might be degraded by proteases present in these organelles. If TAT is required for the lytic activity of TMR-TAT, degradation of the peptide should therefore abolish the activity of the compound. On the other hand, riTAT should be resistant to proteolysis and its lytic activity should not be dependent on the incubation time. HeLa cells were treated with TMR-TAT or TMR-riTAT for 1 hour to allow for endocytosis. The cells were then washed and incubated for an additional 1, 4, or 8 hours in L-15 media to allow for the accumulation of the endocytosed peptides into late endosomes and lysosomes. The cells were then observed under the microscope and treated with light as described in the previous paragraph.
Figure 3 Degradation of TMR-TAT in endocytic organelles abolishes photo-induced endosomal release and photocytotoxicity. HeLa cells were incubated with TMR-TAT or TMR-riTAT (3 µM) for 1 h, washed, and incubated at 37°C for an additional 1, 4 or 8 hours. […] The histogram represents the average percentage of cells stained by SYTOX® Blue after peptide and light treatment (the number of cells examined is at least 3000) and the error bars represent the standard deviation (experiments were reproduced at least 3 times).

CN(C)c1ccc2c(c1)Oc1cc(N(C)C)ccc1C21OC(=O)c2cc(C(=O)NCC(=O)N[C@@H](CCCNC(=N)N)C(=O)N[C@@H](CCCCN)C(=O)N[C@@H](CCCCN)C(=O)N[C@@H](CCCNC(=N)N)C(=O)N[C@@H](CCCNC(=N)N)C(=O)N[C@@H](CCC(N)=O)C(=O)N[C@@H](CCCNC(=N)N)C(=O)N[C@@H](CCCNC(=N)N)C(=O)N[C@@H](CCCNC(=N)N)C(=O)NCC(N)=O)ccc21 [TMR-TAT]
cell destruction, percentage of irradiated cells (SYTOX Blue staining) (HeLa cells [1]; endocytosed peptide, 2 sec irradiation at 560 nm, radiant exposure approx. 40 J/cm^2, at least 3000 cells, reproduced at least 3 times): more than 95% | photocytotoxicity / cell death after irradiation at 560 nm (HeLa cells [1]; incubation 1 h 37°C (3 µM; TMR-K9 10 µM), washed, irradiated at 560±20 nm): rapid necrosis; also recorded: plasma membrane damage and cell death | photo-induced endosomal release and cell-death after additional incubation (HeLa cells [2]; additional 1 hour at 37°C in L-15 before irradiation): observed | photo-induced endosomal release and cell-death after additional incubation (HeLa cells [2]; additional 4 h at 37°C in L-15 before irradiation): reduced | photo-induced endosomal release and cell-death after additional incubation (HeLa cells [2]; additional 8 h at 37°C in L-15 before irradiation): completely abolished
